Results on one compound are retold here after patent publication US20250147006A1, “MULTI-DEPTH SPIRAL MILLI FLUIDIC DEVICE FOR WHOLE MOUNT ZEBRAFISH ANTIBODY STAINING” (THE REGENTS OF THE UNIVERSITY OF CALIFORNIA, priority 2023, published 2025).

Values after ≈ are worked out from the molar mass of the structure shown. Like-named read-outs stand apart in the source and are kept apart here.

Data set [1] has as its system zebrafish embryos. To be noted: 24-well plate.
For data set [2], the system named is zebrafish embryos. Nature of the data set: animal or person. To be noted: Danio rerio, 2 h, read-out: absolute EC50 (50% effective concentration), tail curvature.
Data set [3] deals with zebrafish embryos. To be noted: for EC50: Danio rerio, 2 h.

For `Cn1c(=O)c2c(ncn2C)n(C)c1=O` [caffeine], in the data set on zebrafish embryos [1] (after 2-hour caffeine treatment), the “frequency of tail curvature (scoliosis)” value is on record as “concentration dependent”. The “recovery of embryos with tail curvature” value in the data set with zebrafish embryos [1] (after 24 hours culturing in E3 buffer) is “recovered to normal”. For the same compound, in the data set with zebrafish embryos [1] (all caffeine concentrations 0.0325-2 mg/mL, 2-hour treatment and 24-hour recovery), the “zebrafish embryo survival rate at the end of the experiment” value is “over 90%”. The EC50 with zebrafish embryos [2] was 690 µg/mL (≈ 3.56 mM); with zebrafish embryos [3] (read-out: absolute EC50, tail curvature, CGG, measured concentrations (trypan blue intensity), highest inner wall inlet flowrate (150 μl/min), outer wall 300 μl/min, 2-hour treatment), 987 µg/mL (≈ 5.08 mM); in the data set on zebrafish embryos [3] (read-out: absolute EC50, tail curvature, CGG, measured concentrations (trypan blue intensity), lowest inner wall inlet flowrate (75 μl/min), outer wall 300 μl/min, 2-hour treatment), 993 µg/mL (≈ 5.11 mM); with zebrafish embryos [3] (read-out: absolute EC50, tail curvature, CGG, measured concentrations (trypan blue intensity), middle inner wall inlet flowrate (100 μl/min), outer wall 300 μl/min, 2-hour treatment), 1080 µg/mL (≈ 5.56 mM); in the data set with zebrafish embryos [3] (read-out: absolute EC50, tail curvature, CGG, simulated concentrations, highest inner wall inlet flowrate (150 μl/min), outer wall 300 μl/min, 2-hour treatment), 1210 µg/mL (≈ 6.22 mM); with zebrafish embryos [3] (read-out: absolute EC50, tail curvature, CGG, simulated concentrations, lowest inner wall inlet flowrate (75 μl/min), outer wall 300 μl/min, 2-hour treatment), 1180 µg/mL (≈ 6.05 mM). The EC50 in the data set with zebrafish embryos [3] (read-out: absolute EC50, tail curvature, CGG, simulated concentrations, middle inner wall inlet flowrate (100 μl/min), outer wall 300 μl/min, 2-hour treatment) is 1220 µg/mL (≈ 6.28 mM). Besides, the “zebrafish embryo survival rate” value with zebrafish embryos [3] (CGG, 2-hour treatment and 24-hour recovery, compared with well plate) was “close to the zebrafish embryo tested in the well plate”. The “hillslope of dose-response curves, tail curvature” value with zebrafish embryos [3] (CGG, 3 gradients, 2-hour treatment, compared with well plate) is reported as “greater than the hillslope of well plate-based dose-response curves”. The “overall frequency of edema occurrences” value with zebrafish embryos [3] (CGG, after 24-hour recovery at 2 ml/min, compared with well plate) was “significantly higher in the CGG than in the well plate”.
